Assay results as given in US11051515B2, “3-acyl-benzamides and their use as herbicides” (Bayer Aktiengesellschaft, priority 2017, dated 2021).

How the values were obtained:
[1] = tested on: VIOTR; assay: Pre-emergence action against VIOTR; type: in vivo, Viola tricolor; conditions: for Herbicidal efficacy against VIOTR: 20 g of a.i./ha
Procedure, shortened: (§1)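 Seeds sown in sandy loam in wood-fiber pots and covered with soil. Greenhouse growth; visual damage scored after 3 weeks versus untreated controls (100% = dead, 0% = like control).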

[2] = tested on: VIOTR; assay: Post-emergence action against VIOTR; type: in vivo, Viola tricolor
Procedure, shortened: (§2)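 Weeds grown in sandy loam in greenhouse, treated at one-leaf stage (2–3 weeks after sowing) with WP or EC formulations sprayed as aqueous suspension/emulsion at 600 to […] water with 0.2% wetting agent. Visual rating after about 3 weeks versus untreated controls, as % herbicidal action (100% = plants dead, 0% = like control).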

[3] = tested on: ABUTH; assay: Pre-emergence action against ABUTH; type: in vivo, Abutilon theophrasti; conditions: pre-emergence, dosage 320 g/ha, scored visually after 3 weeks vs untreated controls
Procedure, shortened: as §1

[4] = tested on: CYPES; assay: Pre-emergence action against CYPES; type: in vivo, Cyperus esculentus; conditions: pre-emergence, dosage 320 g/ha, scored visually after 3 weeks vs untreated controls
Procedure, shortened: as §1

[5] = tested on: ECHCG; assay: Pre-emergence action against ECHCG; type: in vivo, Echinochloa crus-galli
Procedure, shortened: as §1

[6] = tested on: AMARE; assay: Post-emergence action against AMARE; type: in vivo, Amaranthus retroflexus; conditions: post-emergence, dosage 80 g/ha, visual assessment about 3 weeks after treatment vs untreated controls
Procedure, shortened: as §2

[7] = tested on: POLCO; assay: Post-emergence action against POLCO; type: in vivo, Polygonum convolvulus; conditions: post-emergence, dosage 80 g/ha
Procedure, shortened: as §2

[8] = tested on: VERPE; assay: Post-emergence action against VERPE; type: in vivo, Veronica persica; conditions: dosage 80 g/ha
Procedure, shortened: as §2

[9] = tested on: ABUTH; assay: Post-emergence action against ABUTH; type: in vivo, Abutilon theophrasti; conditions: post-emergence, dosage 80 g/ha, visual assessment about 3 weeks after treatment vs untreated controls
Procedure, shortened: as §2

[10] = tested on: ALOMY; assay: Post-emergence action against ALOMY; type: in vivo, Alopecurus myosuroides; conditions: Dosage 80 g/ha, post-emergence
Experimental: (§3) Seeds of monocotyledonous and dicotyledonous weed and crop plants are laid out in sandy loam soil in wood-fiber pots, covered with soil and cultivated in a greenhouse under good growth conditions. 2 to 3 weeks after sowing, the test plants are treated at the one-leaf stage. The compounds of the invention, formulated in the form of wettable powders (WP) or as emulsion concentrates (EC), are then sprayed onto the green parts of the plants in the form of an aqueous suspension or emulsion at a water application rate equating to […], with addition of 0.2% wetting agent. After the test plants have been left to stand in the greenhouse under optimal growth conditions for about 3 weeks, the action of the preparations is assessed visually in comparison to untreated controls (herbicidal action in percent (%): 100% activity=the plants have died, 0% activity=like control plants). […] At the same time, inventive compounds leave Gramineae crops such as barley, wheat, rye, millet/Sorghum, corn or rice virtually undamaged when applied post-emergence, even at high active ingredient dosages. In addition, some substances are also harmless to dicotyledonous crops such as soya, cotton, oilseed rape, sugar beet or potatoes. Some of the compounds according to the invention have high selectivity and are therefore suitable for controlling unwanted vegetation in agricultural crops by the post-emergence method. The data of Tables B18 to B34 below illustrate, in an exemplary manner, the […] herbicidal action of the compounds according to the invention, the herbicidal activity being stated in percent.

[11] = tested on: PHBPU; assay: Post-emergence action against PHBPU; type: in vivo, Pharbitis purpurea; conditions: post-emergence, dosage 80 g/ha
Procedure, shortened: as §2

[12] = tested on: STEME; assay: Post-emergence action against STEME; type: in vivo, Stellaria media; conditions: post-emergence, dosage 80 g/ha
Procedure, shortened: as §2

[13] = tested on: AMARE; assay: Pre-emergence action against AMARE; type: in vivo, Amaranthus retroflexus
Procedure, shortened: as §1

[14] = tested on: AVEFA; assay: Post-emergence action against AVEFA; type: in vivo, Avena fatua; conditions: post-emergence, dosage 80 g/ha, visual assessment about 3 weeks after treatment vs untreated controls
Experimental: as §3

[15] = tested on: VERPE; assay: Pre-emergence action against VERPE; type: in vivo, Veronica persica
Procedure, shortened: as §1

[16] = tested on: POLCO; assay: Pre-emergence action against POLCO; type: in vivo, Polygonum convolvulus; conditions: Dosage 320 g/ha, pre-emergence
Procedure, shortened: as §1

[17] = tested on: MATIN; assay: Post-emergence action against MATIN; type: in vivo, Matricaria inodora
Procedure, shortened: as §2

[18] = tested on: SETVI; assay: Post-emergence action against SETVI; type: in vivo, Setaria viridis; conditions: post-emergence, dosage 80 g/ha, visual assessment about 3 weeks after treatment vs untreated controls
Procedure, shortened: as §2

[19] = tested on: STEME; assay: Pre-emergence action against STEME; type: in vivo, Stellaria media
Procedure, shortened: as §1

[20] = tested on: ECHCG; assay: Post-emergence action against ECHCG; type: in vivo, Echinochloa crus-galli; conditions: post-emergence, dosage 80 g/ha, visual assessment about 3 weeks after treatment vs untreated controls
Procedure, shortened: as §2

[21] = tested on: SETVI; assay: Pre-emergence action against SETVI; type: in vivo, Setaria viridis; conditions: pre-emergence, dosage 320 g/ha, scored visually after 3 weeks vs untreated controls
Procedure, shortened: as §1

[22] = tested on: MATIN; assay: Pre-emergence action against MATIN; type: in vivo, Matricaria inodora; conditions: for Herbicidal efficacy against MATIN: 20 g of a.i./ha
Procedure, shortened: as §1

[23] = tested on: AVEFA; assay: Pre-emergence action against AVEFA; type: in vivo, Avena fatua; conditions: dosage 320 g/ha, scored visually after 3 weeks vs untreated controls
Procedure, shortened: as §1

[24] = tested on: CYPES; assay: Post-emergence action against CYPES; type: in vivo, Cyperus esculentus; conditions: post-emergence, dosage 80 g/ha, visual assessment about 3 weeks after treatment vs untreated controls
Procedure, shortened: as §2

[25] = tested on: PHBPU; assay: Pre-emergence action against PHBPU; type: in vivo, Pharbitis purpurea; conditions: Dosage 320 g/ha, pre-emergence
Procedure, shortened: as §1

[26] = tested on: ALOMY; assay: Pre-emergence action against ALOMY; type: in vivo, Alopecurus myosuroides; conditions: dosage 320 g/ha; pre-emergence; scored visually after 3 weeks vs untreated controls; 100% = plants have died, 0% = like control plants
Procedure, shortened: as §1

[27] = Table V17, post-emergence, 5 g of a.i./ha
[28] = Table V8, pre-emergence, 20 g of a.i./ha
[29] = pre-emergence, dosage 320 g/ha, scored visually after 3 weeks vs untreated controls
[30] = post-emergence, dosage 80 g/ha, visual assessment about 3 weeks after treatment vs untreated controls

## CC(=O)c1c(S(C)(=O)=O)ccc(C(=O)Nc2nnnn2C)c1C [1-7]
[1]; Table V5, pre-emergence
  Herbicidal efficacy against VIOTR: 100
[1]; Table V8, pre-emergence
  Herbicidal efficacy against VIOTR: 100
[1]; Viola tricolor, 504 h, Dosage 320 g/ha, pre-emergence
  pest or weed control at 320 g/ha: 100%
[2]; [27]
  Herbicidal efficacy against VIOTR: 100
[2]; Viola tricolor, 504 h, post-emergence, dosage 80 g/ha
  pest or weed control at 80 g/ha: 100%
[3]; Abutilon theophrasti, 504 h, read-out: Pre-emergence action against ABUTH (herbicidal activity)
  pest or weed control at 320 g/ha: 100%
[4]; Cyperus esculentus, 504 h, read-out: Pre-emergence action against CYPES (herbicidal activity)
  pest or weed control at 320 g/ha: 100%
[5]; Echinochloa crus-galli, 504 h, pre-emergence, dosage 320 g/ha, scored visually after 3 weeks vs untreated controls, read-out: Pre-emergence action against ECHCG (herbicidal activity)
  pest or weed control at 320 g/ha: 100%
[5]; [28]
  Herbicidal efficacy against ECHCG: 70
[6]; Amaranthus retroflexus, 504 h, read-out: Post-emergence action against AMARE (herbicidal action in percent)
  pest or weed control at 80 g/ha: 100%
[7]; Fallopia convolvulus, 504 h
  pest or weed control at 80 g/ha: 80%
[8]; Veronica persica, 504 h
  pest or weed control at 80 g/ha: 100%
[9]; Abutilon theophrasti, 504 h, read-out: Post-emergence action against ABUTH (herbicidal action in percent)
  pest or weed control at 80 g/ha: 90%
[10]; Alopecurus myosuroides, 504 h
  pest or weed control at 80 g/ha: 80%
[11]; Ipomoea purpurea, 504 h
  pest or weed control at 80 g/ha: 100%
[12]; Stellaria media, 504 h
  pest or weed control at 80 g/ha: 100%
[13]; Amaranthus retroflexus, 504 h, pre-emergence, dosage 320 g/ha, scored visually after 3 weeks vs untreated controls, read-out: Pre-emergence action against AMARE (herbicidal activity)
  pest or weed control at 320 g/ha: 100%
[13]; [28]
  Herbicidal efficacy against AMARE: 100
[14]; Avena fatua, 504 h, read-out: Post-emergence action against AVEFA (herbicidal action in percent)
  pest or weed control at 80 g/ha: 80%
[15]; [28]
  Herbicidal efficacy against VERPE: 100
[15]; Veronica persica, 504 h, Dosage 320 g/ha, pre-emergence
  pest or weed control at 320 g/ha: 100%
[16]; Fallopia convolvulus, 504 h
  pest or weed control at 320 g/ha: 80%
[17]; [27]
  Herbicidal efficacy against MATIN: 100
[17]; Tripleurospermum inodorum, 504 h, post-emergence, dosage 80 g/ha, visual assessment about 3 weeks after treatment vs untreated controls, read-out: Post-emergence action against MATIN (herbicidal action in percent)
  pest or weed control at 80 g/ha: 100%
[18]; Setaria viridis, 504 h, read-out: Post-emergence action against SETVI (herbicidal action in percent)
  pest or weed control at 80 g/ha: 90%
[19]; Stellaria media, 504 h, Dosage 320 g/ha, pre-emergence
  pest or weed control at 320 g/ha: 90%
[19]; [28]
  Herbicidal efficacy against STEME: 90
[20]; Echinochloa crus-galli, 504 h, read-out: Post-emergence action against ECHCG (herbicidal action in percent)
  pest or weed control at 80 g/ha: 90%
[21]; Setaria viridis, 504 h, read-out: SETVI (Table B8, pre-emergence herbicidal activity)
  pest or weed control at 320 g/ha: 100%
[22]; Table V5, pre-emergence
  Herbicidal efficacy against MATIN: 90
[22]; Table V8, pre-emergence
  Herbicidal efficacy against MATIN: 90
[22]; Tripleurospermum inodorum, 504 h, Dosage 320 g/ha, pre-emergence
  pest or weed control at 320 g/ha: 100%

## CCn1nnnc1NC(=O)c1ccc(SC)c(C(C)=O)c1Cl [2-121]
[23]
  Pre-emergence action against AVEFA (herbicidal activity): 90%
[1]; Dosage 320 g/ha, pre-emergence
  Pre-emergence action against VIOTR: 100%
[2]; post-emergence, dosage 80 g/ha
  Post-emergence action against VIOTR: 100
[3]
  Pre-emergence action against ABUTH (herbicidal activity): 100%
[4]
  Pre-emergence action against CYPES (herbicidal activity): 90%
[5]; [29]
  Pre-emergence action against ECHCG (herbicidal activity): 100%
[6]
  Post-emergence action against AMARE (herbicidal action in percent): 100%
[8]
  Post-emergence action against VERPE: 100
[9]
  Post-emergence action against ABUTH (herbicidal action in percent): 100%
[10]
  Post-emergence action against ALOMY: 80%
[24]
  Post-emergence action against CYPES (herbicidal action in percent): 80%
[11]
  Post-emergence action against PHBPU: 90
[12]
  Post-emergence action against STEME: 90
[13]; [29]
  Pre-emergence action against AMARE (herbicidal activity): 100%
[14]
  Post-emergence action against AVEFA (herbicidal action in percent): 80%
[15]; Dosage 320 g/ha, pre-emergence
  Pre-emergence action against VERPE: 100%
[16]
  Pre-emergence action against POLCO: 100%
[25]
  Pre-emergence action against PHBPU: 80%
[17]; [30]
  Post-emergence action against MATIN (herbicidal action in percent): 100%
[18]
  Post-emergence action against SETVI (herbicidal action in percent): 90%
[19]; Dosage 320 g/ha, pre-emergence
  Pre-emergence action against STEME: 90%
[20]
  Post-emergence action against ECHCG (herbicidal action in percent): 100%
[21]
  SETVI (Table B8, pre-emergence herbicidal activity): 90%
[26]
  Pre-emergence action against ALOMY (herbicidal activity in percent): 90%
[22]; Dosage 320 g/ha, pre-emergence
  Pre-emergence action against MATIN: 100%

## CCCn1nnnc1NC(=O)c1ccc(C(F)(F)F)c(C(=O)C2CC2)c1C [3-18]
[23]
  Pre-emergence action against AVEFA (herbicidal activity): 80%
[1]; Dosage 320 g/ha, pre-emergence
  Pre-emergence action against VIOTR: 100%
[2]; post-emergence, dosage 80 g/ha
  Post-emergence action against VIOTR: 100
[3]
  Pre-emergence action against ABUTH (herbicidal activity): 100%
[4]
  Pre-emergence action against CYPES (herbicidal activity): 90%
[5]; [29]
  Pre-emergence action against ECHCG (herbicidal activity): 100%
[7]
  Post-emergence action against POLCO: 80
[8]
  Post-emergence action against VERPE: 80
[9]
  Post-emergence action against ABUTH (herbicidal action in percent): 80%
[10]
  Post-emergence action against ALOMY: 80%
[24]
  Post-emergence action against CYPES (herbicidal action in percent): 90%
[11]
  Post-emergence action against PHBPU: 90
[12]
  Post-emergence action against STEME: 100
[13]; [29]
  Pre-emergence action against AMARE (herbicidal activity): 100%
[14]
  Post-emergence action against AVEFA (herbicidal action in percent): 80%
[15]; Dosage 320 g/ha, pre-emergence
  Pre-emergence action against VERPE: 90%
[17]; [30]
  Post-emergence action against MATIN (herbicidal action in percent): 90%
[18]
  Post-emergence action against SETVI (herbicidal action in percent): 100%
[19]; Dosage 320 g/ha, pre-emergence
  Pre-emergence action against STEME: 100%
[20]
  Post-emergence action against ECHCG (herbicidal action in percent): 80%
[21]
  SETVI (Table B8, pre-emergence herbicidal activity): 100%
[26]
  Pre-emergence action against ALOMY (herbicidal activity in percent): 80%
[22]; Dosage 320 g/ha, pre-emergence
  Pre-emergence action against MATIN: 100%
